{
  "source": "patent US9587002B2",
  "about": "“Sequence of nucleotides and peptides GSE 24.2 of dyskerin, which can induce telomerase activity, method for obtaining same, therapeutic compositions and applications thereof” (CONSEJO SUPERIOR DE INVESTIGACIONES CIENTIFICAS, priority 2005, dated 2017)",
  "key": {"hTR": {"tested_on": "hTR", "assay": "RT-PCR expression of hTR in 293T cell lines after cisplatin", "assay_type": "cell-based, human", "settings": "pLNCX and pLNCX 24.2 cells; 3 μg/ml, 3 and 7 days", "experimental": "(§1) FIG. 7.—Expression levels of different genes related to telomerase in 293T cells: pLNCX and 24.2 following treatment with cisplatin. The cells were seeded in 60-mm plates, treated with 3 μg/ml of cDDP following pre-treatment with 0.5 μg/ml of cisplatin for 3 days and, subsequently, collected at the times specified in the figure (3 and 7 days). Following the extraction of RNA, RT-PCR was performed with oligos specific for hTERT, hTR and dyskerin in order to study the expression levels of the messenger RNAs. As a starting RNA control, oligos for the amplification of GAPDH were used.\n(§2) One of the explanations for the lower sensitivity of pLNCX 24.2 cells to cisplatin could be a change in the levels of some of the components of the telomerase complex. Therefore, the expression levels of different genes involved in the telomerase complex and the effect that cisplatin had on their expression were studied. To this end, the pLNCX and pLNCX 24.2 cells were pre-treated with 0.5 μg/ml and treated with 3 μg/ml of cisplatin for 3 and 7 days. Using oligos specific for hTR, hTERT and dyskerin, the expression levels of these genes and the effect of cisplatin on said expression were studied. […] This change in the sensitivity to cisplatin could explain, at least partially, the difference in sensitivity in the telomerase activity assays.\n(§3) Expression of genes by RT-PCR. […]"}, "hTERT": {"tested_on": "hTERT", "assay": "RT-PCR expression of hTERT in 293T cell lines after cisplatin", "assay_type": "cell-based, human", "settings": "pLNCX cells; 3 μg/ml, 3 days of treatment", "experimental": "as §1, §2, §3"}, "telomerase [1]": {"target": "T1, telomerase (Homo sapiens, UniProt O14746)", "T1 sequence (O14746 whole entry)": "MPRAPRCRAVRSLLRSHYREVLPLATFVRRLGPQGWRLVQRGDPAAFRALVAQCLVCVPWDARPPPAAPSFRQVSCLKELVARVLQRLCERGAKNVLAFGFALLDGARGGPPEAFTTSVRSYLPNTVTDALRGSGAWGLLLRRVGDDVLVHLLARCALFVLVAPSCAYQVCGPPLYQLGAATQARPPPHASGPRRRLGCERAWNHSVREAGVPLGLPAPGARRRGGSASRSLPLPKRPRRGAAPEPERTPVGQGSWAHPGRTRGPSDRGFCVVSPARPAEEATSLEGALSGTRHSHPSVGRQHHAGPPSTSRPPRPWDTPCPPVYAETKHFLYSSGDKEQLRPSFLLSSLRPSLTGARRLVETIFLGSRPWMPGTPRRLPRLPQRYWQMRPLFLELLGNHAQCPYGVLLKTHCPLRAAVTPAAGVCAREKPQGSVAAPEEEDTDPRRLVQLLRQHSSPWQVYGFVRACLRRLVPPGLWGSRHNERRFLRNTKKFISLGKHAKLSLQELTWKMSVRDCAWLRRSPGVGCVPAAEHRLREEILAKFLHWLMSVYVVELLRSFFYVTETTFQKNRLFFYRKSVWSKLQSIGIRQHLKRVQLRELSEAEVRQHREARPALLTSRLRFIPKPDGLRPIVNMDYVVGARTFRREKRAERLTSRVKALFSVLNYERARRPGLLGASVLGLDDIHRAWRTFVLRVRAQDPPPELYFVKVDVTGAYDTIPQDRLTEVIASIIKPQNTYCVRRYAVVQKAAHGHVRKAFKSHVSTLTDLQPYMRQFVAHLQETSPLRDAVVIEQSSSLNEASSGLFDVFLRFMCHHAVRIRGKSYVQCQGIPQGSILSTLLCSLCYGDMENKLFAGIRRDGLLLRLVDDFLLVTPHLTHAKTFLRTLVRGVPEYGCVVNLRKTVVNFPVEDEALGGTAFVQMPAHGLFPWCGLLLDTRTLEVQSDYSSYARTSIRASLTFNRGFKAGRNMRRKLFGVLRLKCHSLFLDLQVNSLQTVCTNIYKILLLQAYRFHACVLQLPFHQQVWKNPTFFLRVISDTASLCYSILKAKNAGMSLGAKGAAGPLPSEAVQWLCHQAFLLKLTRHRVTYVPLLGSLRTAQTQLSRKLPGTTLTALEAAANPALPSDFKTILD", "T1 sequence (O60832 2-514 partner limits assumed)": "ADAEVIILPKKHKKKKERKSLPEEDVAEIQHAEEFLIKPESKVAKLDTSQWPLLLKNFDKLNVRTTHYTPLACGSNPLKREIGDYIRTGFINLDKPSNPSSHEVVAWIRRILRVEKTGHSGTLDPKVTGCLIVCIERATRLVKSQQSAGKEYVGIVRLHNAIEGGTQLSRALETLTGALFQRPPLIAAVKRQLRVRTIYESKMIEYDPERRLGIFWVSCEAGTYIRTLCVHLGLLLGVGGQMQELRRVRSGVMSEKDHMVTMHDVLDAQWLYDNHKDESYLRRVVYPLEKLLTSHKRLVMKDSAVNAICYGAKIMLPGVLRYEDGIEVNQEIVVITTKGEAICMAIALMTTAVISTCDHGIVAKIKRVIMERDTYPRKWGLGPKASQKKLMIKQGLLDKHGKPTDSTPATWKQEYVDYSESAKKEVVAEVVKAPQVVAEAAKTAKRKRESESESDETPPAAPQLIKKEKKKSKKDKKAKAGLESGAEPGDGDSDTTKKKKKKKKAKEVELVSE", "T1 sequence (Q9NPE3 whole entry partner)": "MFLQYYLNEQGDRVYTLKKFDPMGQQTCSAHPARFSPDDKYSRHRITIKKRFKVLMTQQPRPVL", "T1 sequence (Q9NX24 whole entry partner)": "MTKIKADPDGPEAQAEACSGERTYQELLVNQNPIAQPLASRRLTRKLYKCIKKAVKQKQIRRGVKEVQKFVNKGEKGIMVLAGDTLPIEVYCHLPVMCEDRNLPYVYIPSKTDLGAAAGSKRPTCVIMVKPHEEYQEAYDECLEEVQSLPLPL", "T1 sequence (Q9NY12 whole entry partner)": "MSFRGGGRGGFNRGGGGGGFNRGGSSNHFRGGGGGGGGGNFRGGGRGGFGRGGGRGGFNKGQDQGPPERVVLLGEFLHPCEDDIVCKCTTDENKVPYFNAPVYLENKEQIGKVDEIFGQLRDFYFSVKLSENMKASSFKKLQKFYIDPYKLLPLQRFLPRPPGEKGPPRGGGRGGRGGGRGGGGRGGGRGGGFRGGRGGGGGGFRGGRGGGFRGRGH", "T1 sequence (Q9BUR4 whole entry partner)": "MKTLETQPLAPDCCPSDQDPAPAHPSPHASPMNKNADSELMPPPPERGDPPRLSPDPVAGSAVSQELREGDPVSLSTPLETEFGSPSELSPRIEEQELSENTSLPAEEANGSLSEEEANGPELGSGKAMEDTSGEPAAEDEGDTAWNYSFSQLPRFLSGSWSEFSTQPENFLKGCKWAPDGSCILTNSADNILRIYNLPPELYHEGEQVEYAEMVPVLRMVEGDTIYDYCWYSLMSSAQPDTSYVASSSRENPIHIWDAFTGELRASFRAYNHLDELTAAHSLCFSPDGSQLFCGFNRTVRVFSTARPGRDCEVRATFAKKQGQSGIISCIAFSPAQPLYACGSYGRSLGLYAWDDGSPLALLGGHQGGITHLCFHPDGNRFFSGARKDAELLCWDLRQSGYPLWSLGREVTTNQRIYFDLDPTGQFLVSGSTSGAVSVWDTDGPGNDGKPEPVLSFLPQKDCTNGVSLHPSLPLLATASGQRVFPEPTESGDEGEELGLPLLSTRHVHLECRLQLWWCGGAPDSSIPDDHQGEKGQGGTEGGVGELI", "assay": "Telomerase activity (TRAP) of 293T cell lines treated with cisplatin", "assay_type": "cell-based", "design": "endogenous in cells; host or cells: 293T cells stably transfected with empty pLNCX or pLNCX 24.2", "settings": "293T pLNCX cells; pre-treated 0.5 μg/ml 3 days, then 3 μg/ml, 7-day treatment", "experimental": "FIG. 5.—Telomerase activity of the 293T cell lines: pLNCX and 24.2 following treatment with cisplatin. The cells were seeded in 60-mm plates, pre-treated with 0.5 μg/ml of cisplatin for 3 days and subsequently treated with cisplatin at a dose of 3 μg/ml […]. The telomerase activity was measured by means of the Intergen TRAPeze assay. The experiment was performed 3 times, with similar results.\nTo this end, an assay of telomerase activity was performed using the TRAP method with the pLNCX and pLNCX 24.2 cell lines (FIG. 5), pre-treating them for 3 days with 0.5 μg/ml of cisplatin; subsequently, they were treated with 3 μg/ml of cisplatin for 3 and 7 days. […]\nTelomerase activity assay based on the TRAP method Wright et al., 1995). The telomerase activity was measured using the TRAPeze telomerase detection kit (Intergen) in accordance with the instruction manual. The protein concentration of each extract was quantified by means of the Bradford method using the BIORAD reagent and after performing a PCR in accordance with the manual instructions; polyacrylamide gel electrophoresis was performed with the reaction products under non-denaturing conditions and, subsequently, it was stained with Ethidium bromide for 30 minutes."}, "dyskerin": {"tested_on": "dyskerin", "assay": "RT-PCR expression of dyskerin in 293T cell lines after cisplatin", "assay_type": "cell-based, human", "settings": "pLNCX and pLNCX 24.2 cells; 3 μg/ml, 3 and 7 days", "experimental": "as §1, §2, §3"}, "telomerase [2]": {"target": "T1, telomerase", "settings": "different cell lines / G-quadruplex formation in telomeres; cited from earlier work"}},
  "data": [
    {"smiles": "N.N.[Cl][Pt][Cl]", "note": "[cisplatin]", "values": [
      {"measurement": "effect of cisplatin on hTR expression", "setting": "hTR", "value": "no effect"},
      {"measurement": "effect of cisplatin on hTERT expression", "setting": "hTERT", "value": "reduction in the expression of hTERT"},
      {"measurement": "effect of cisplatin on telomerase activity", "setting": "telomerase [1]", "value": "caused inhibition of telomerase activity"},
      {"measurement": "effect of cisplatin on dyskerin expression", "setting": "dyskerin", "value": "no effect"},
      {"measurement": "inhibition of telomerase activity (literature)", "setting": "telomerase [2]", "value": "capable of inhibiting telomerase activity"}
    ]}
  ]
}
